These results are taken from US8491891B2, “Human beta-glucuronidase mutants with elevated enzymatic activity under physiological conditions and method for identifying such” (Academia Sinica, priority 2008, dated 2013).

Like-named read-outs stand apart in the source and are kept apart here. Marks after values point to notes of the source that are not given here.

The nature of data set [1]: Serum concentrations of CPT-11, SN-38 and SN-38G after CPT-11 administration. Particulars: for Serum levels in mice bearing EJ versus EJ/mβG tumor: 2 h after CPT-11 administration; for Serum concentrations in mice bearing EJ versus EJ/mβG tumor: 8 h or 24 h after CPT-11 administration.
Data set [2] concerns EJ human bladder carcinoma cells. Briefly: Sensitivity of EJ cells to CPT-11, SN-38, SN-38G (3H-thymidine incorporation).
Description: (§1) Cell viability was examined by measuring ^3H-thymidine incorporation into cellular DNA after the cells were cultured for an additional 24 h in fresh medium.
A further data set has as its system EJ/mβG cells. Briefly: Sensitivity of EJ/mβG cells to CPT-11, SN-38, SN-38G (3H-thymidine incorporation). To be noted: for IC50: read-out: IC50 (cytotoxicity), EJ/mβG cells.
Data set [3] is described as follows: Intratumoral concentrations of CPT-11, SN-38 and SN-38G after CPT-11 treatment (SPE-HPLC). How it is done: Tumors were collected 2, 8 and 24 h after CPT treatment, immediately dispersed in ice-cold acidic methanol (methanol: water: perchloric acid=20:20:1), and homogenized 60 sec on an Ultraturax tissue homogenizer at 20,000 rpm. The samples were clarified by centrifugation at 15,000 g for 5 min at 4° C. Supernatants were diluted with 0.1 M KH2PO4 and then separated by SPE-HPLC on a μBondapack column with 27% acetonitrile in 0.1 M potassium phosphate buffer pH=2.6. […] These three analytes were quantified by comparison with standard curves generated with analyte concentrations ranging from 2.0 pg to 200 ng.

Data set [4] is described as follows: Relative activity of membrane-tethered human β-glucuronidase variants on 3T3 cells by flow cytometry (FL4/FL1). Type of data set: cell-based. To be noted: membrane-tethered enzyme, pH 7.0, substrate ELF97 β-D-glucuronide. How it is done: The 3T3 cell libraries mentioned above were screened by FACS analysis for cells that express human β-glucuronidase variants with elevated enzymatic activity. 10^7 3T3 cells expressing membrane-bound human β-glucuronidase variants were washed and suspended in 0.4 ml BSA/HBSS (5.4 mM KCl, 0.3 mM Na2HPO4, 0.4 mM KH2PO4, 4.2 mM NaHCO3, 1.3 mM CaCl2, 0.5 mM MgCl2, 0.6 mM MgSO4, 137 mM NaCl, 5.6 mM D-glucose, pH 7.4) containing 0.5% bovine serum albumin (BSA) and 20 μg/ml 7G8-FITC for 30 min at 4° C. Cells were then washed and incubated with 25, 50 or 100 μM ELF97 β-D-glucuronide at defined pH values in 50 mM Bis-Tris, 25 mM glucose, 85.6 mM NaCl, 5.4 mM KCl, 0.6 mM MgSO4, 1.3 mM CaCl2) at 37° C. for 10 min. The cells were washed with ice-cold 0.5% BSA/HBSS and suspended in 0.5% BSA/HBSS containing 5 μg/ml propidium iodide (Sigma). Cells were then sorted on a FACSVantage DiVa (Becton, Dickinson and Company, Franklin Lakes, N.J.) equipped with an Enterprise IIC argon laser for dual excitation at 488 and 351-364 nm. Dead cells (propidium iodide positive, high FL3 fluorescence) were gated out before 7G8-FITC immunofluorescence was detected at excitation/emission wavelengths of 488/515 nm (FL1) and ELF97 was detected at excitation/emission wavelengths of 351/530 nm (FL4). […] The sorted cells were cultured for 4-10 days for sequential rounds of cell sorting or RNA extraction. Flow cytometer data was analyzed using Flowjo (Tree star, Ashland, Oreg.).
Independent 3T3 clones (5×10^7) in library EP2 mentioned above were immunofluorescence stained with 7G8-FITC and reacted with ELF97 β-D-glucuronide at pH 7.0. Sixteen individual cell clones were isolated after three rounds of sorting and the human β-glucuronidase genes were sequenced. […] Table 1 below lists amino acid substitutions in five exemplary variants and their relative enzymatic activities.
(In general: A flow cytometer gives signals particle by particle.)

Data set [5] can be described thus: Kinetic values (Km, kcat) of soluble recombinant human β-glucuronidase and variants. The data set is classed as biochemical. How it is done:
Recombinant His-tagged wild-type human β-glucuronidase and its variants (soluble) were produced in and purified from stable 3T3 fibroblast lines, following the method described above also the method described in Wu et al., Biotechnol Appl Biochem 40:167-172 (2004).
The pH-dependent enzyme activities of the above-mentioned recombinant human beta-glucuronidase and variants were measured in triplicate with 0.1 mM ELF97 β-D-glucuronide at 37° C. for 30 minutes at a defined pH ranging from 3-10 in a beta-glucuronidase reaction buffer (50 mM Bis-Tris, 50 mM triethanol amine, 100 mM acetic acid, 0.1% BSA). The reaction was quenched by adding an equal volume of a stop buffer (2 M Tris-HCl, 0.8 M sodium bicarbonate, pH 8). The fluorescence of ELF97 was measured in a Gemini EM microplate spectrofluorometer (Molecular Device, Sunnyvale, Calif.) at excitation/emission wavelengths of 355/555 nm. Kinetic values for human beta-glucuronidase substrate hydrolysis were determined by diluting ELF97 β-D-glucuronide (2 mM) in a pH 4.5 or pH 7.0 beta-glucuronidase reaction buffer 1:1 with defined concentrations of human beta-glucuronidase in 200 μl. Fluorescence was immediately measured under thermal control at 37° C. for 8-10 min. The measurement was repeated using the same amount of enzyme at different substrate concentrations in an optimal range. The acquired readings were converted to product concentration based on preestablished standard curves. Double reciprocal plots were used to determine Km and kcat. Kinetic assays were performed at least 3 times and mean values were calculated. The stability of recombinant human beta-glucuronidase variants was carried out by measuring their enzymatic activity at time 0 and again after incubating 5 μg purified enzymes in PBS (containing 0.5 mg/ml BSA) at 37° C. for 14 days. The enzymatic activities of the human beta-glucuronidase variants were measured in triplicate with 0.5 mM 4-methylumbelliferyl β-D-glucuronide at 37° C. for 15 minutes at pH 7.0 in β-glucuronidase reaction buffer. The reaction was terminated by adding an equal volume of a stop buffer (1 M glycine, 0.5 M sodium bicarbonate, pH 11) and the fluorescence was measured at excitation/emission wavelengths of 355/460 nm in a microplate spectrofluorometer.

[6] abbreviates: 24 h after CPT-11 10 mg/kg i.v.

Description for EJ/mβG cells: EJ human bladder carcinoma cells were cultured in RPMI medium supplemented with 10% bovine calf serum in a humidified atmosphere of 5% CO2 in air at 37° C.
as §1

For orientation: IC50 means the midpoint of a concentration-inhibition curve. Take SN-38G: the “Serum levels in mice bearing EJ versus EJ/mβG tumor” value in data set [1] is given as “similar”. For the same molecule, the “Serum concentrations in mice bearing EJ versus EJ/mβG tumor” value in data set [1] was “no significant differences”. In addition, the “Cytotoxicity at the highest concentration investigated” value in data set [2] (1000 nM) is on record as “non-toxic”. The “Sensitivity of EJ/mβG cells relative to EJ cells” value with EJ/mβG cells (EJ/mβG vs EJ cells) is recorded as “over 30 times”. The figures for the IC50 with EJ/mβG cells (pH 6.6) and in the data set with EJ/mβG cells (pH 7.4) were 32 nM and 190 nM, respectively.

For the molecule `CCc1c2c(nc3ccc(O)cc13)-c1cc3c(c(=O)n1C2)COC(=O)[C@]3(O)CC` [SN-38], the “Intratumoral concentration, percent higher in EJ/mβG tumors as compared to EJ tumors” value in data set [3] (2, 8 and 24 h) was 65-130%. Also, the “Difference EJ/mβG vs EJ (EJ values as 100%)” value in data set [3] (2 h) is on record as 65.63* %; in data set [3] (8 h) it was 127.10* %; in data set [3] (24 h), 71.43* %. Besides, the “Concentration in EJ xenografts” value came out at 43 ± 10.5 ng drug/g tumor in data set [3] (2 h after CPT-11 10 mg/kg i.v.), 7.5 ± 0.93 ng drug/g tumor in data set [3] (8 h after CPT-11 10 mg/kg i.v.) and 0.07 ± 0.02 ng drug/g tumor in data set [3] (setting [6]). Also, the “Concentration in EJ/mβG xenografts” value in data set [3] (2 h after CPT-11 10 mg/kg i.v.) was found to be 71 ± 13 ng drug/g tumor; in data set [3] (8 h after CPT-11 10 mg/kg i.v.), 17 ± 5.56 ng drug/g tumor; in data set [3] (setting [6]), 0.12 ± 0.01 ng drug/g tumor. For the same molecule, the “Serum levels in mice bearing EJ versus EJ/mβG tumor” value in data set [1] is recorded as “similar”. Also, the “Serum concentrations in mice bearing EJ versus EJ/mβG tumor” value in data set [1] is reported as “no significant differences”. For the same molecule, the IC50 in data set [2] (read-out: IC50 (cytotoxicity), pH 6.6) amounted to 2 nM; in data set [2] (read-out: IC50 (cytotoxicity), pH 7.4), 6 nM; with EJ/mβG cells (pH 6.6), 2 nM; in the data set with EJ/mβG cells (pH 7.4), 6 nM.

B1: E2-20: human beta-glucuronidase variant L243Q, L255Q, T545G, SEQ ID NO: 10 (protein)
chain: AAQPALQGGMLYPQESPSRECKELDGLWSFRADFSDNRRRGFEEQWYRRPLWESGPTVDMPVPSSFNDISQDWRLRHFVGWVWYEREVILPERWTQDLRTRVVLRIGSAHSYAIVWVNGVDTLEHEGGYLPFEADISNLVQVGPLPSRLRITIAINNTLTPTTLPPGTIQYLTDTSKYPKGYFVQNTYFDFFNYAGLQRSVLLYTTPTTYIDDITVTTSVEQDSGQVNYQISVKGSNQFKLEVRLLDAENKVVANGTGTQGQLKVPGVSLWWPYLMHERPAYLYSLEVQLTAQTSLGPVSDFYTLPVGIRTVAVTKSQFLINGKPFYFHGVNKHEDADIRGKGFDWPLLVKDFNLLRWLGANAFRTSHYPYAEEVMQMCDRYGIVVIDECPGVGLALPQFFNNVSLHHHMQVMEEVVRRDKNHPAVVMWSVANEPASHLESAGYYLKMVIAHTKSLDPSRPVTFVSNSNYAADKGAPYVDVICLNSYYSWYHDYGHLELIQLQLATQFENWYKKYQKPIIQSEYGAEGIAGFHQDPPLMFTEEYQKSLLEQYHLGLDQKRRKYVVGELIWNFADFMTEQSPTRVLGNKKGIFTRQRQPKSAAFLLRERYWKIANETRYPHSVAKSQCLENSPFTSVD
modifications: Laboratory generated variant, E2-20, based upon the human beta-glucuronidase
In general, Km refers to the concentration of substrate that gives half-maximal velocity. In general, kcat refers to the number of substrate molecules converted per active site and unit of time at saturation. B1: the “Relative activity (FL4/FL1 normalized to wild-type human β-glucuronidase)” value in data set [4] worked out at 116. Besides, the “Km as compared to E1-G” value in data set [5] is given as “about a three-fold smaller Km”. Besides, in data set [5] (pH 4.5, 37° C.), the Km was determined as 6.7 ± 0.5 µM and the kcat was 71 ± 3 s⁻¹. For the same molecule, in data set [5] (pH 7.0, 37° C.), the Km worked out at 38 ± 5 µM and the kcat stood at 30 ± 5 s⁻¹. Moreover, the “kcat/Km at pH 7.0, fold greater than kcat/Km of wild type at pH 4.5” value in data set [5] (variant at pH 7.0 vs wild type at pH 4.5) is “about 2 fold”.

B2: S28: human beta-glucuronidase variant Q518R, T545S, E595Y, T599F, SEQ ID NO: 9 (protein)
chain: AAQPALQGGMLYPQESPSRECKELDGLWSFRADFSDNRRRGFEEQWYRRPLWESGPTVDMPVPSSFNDISQDWRLRHFVGWVWYEREVILPERWTQDLRTRVVLRIGSAHSYAIVWVNGVDTLEHEGGYLPFEADISNLVQVGPLPSRLRITIAINNTLTPTTLPPGTIQYLTDTSKYPKGYFVQNTYFDFFNYAGLQRSVLLYTTPTTYIDDITVTTSVEQDSGLVNYQISVKGSNLFKLEVRLLDAENKVVANGTGTQGQLKVPGVSLWWPYLMHERPAYLYSLEVQLTAQTSLGPVSDFYTLPVGIRTVAVTKSQFLINGKPFYFHGVNKHEDADIRGKGFDWPLLVKDFNLLRWLGANAFRTSHYPYAEEVMQMCDRYGIVVIDECPGVGLALPQFFNNVSLHHHMQVMEEVVRRDKNHPAVVMWSVANEPASHLESAGYYLKMVIAHTKSLDPSRPVTFVSNSNYAADKGAPYVDVICLNSYYSWYHDYGHLELIRLQLATQFENWYKKYQKPIIQSEYGAESIAGFHQDPPLMFTEEYQKSLLEQYHLGLDQKRRKYVVGELIWNFADFMTYQSPFRVLGNKKGIFTRQRQPKSAAFLLRERYWKIANETRYPHSVAKSQCLENSPFTSVD
modifications: Laboratory generated variant, S28, based upon the human beta-glucuronidase
Consider B2, for which the “Relative activity (FL4/FL1 normalized to wild-type human β-glucuronidase)” value in data set [4] is 47. For the same molecule, in data set [5] (pH 4.5, 37° C.), the Km was 16 ± 3 µM and the kcat is 79 ± 3 s⁻¹. In data set [5] (pH 7.0, 37° C.), the Km worked out at 72 ± 24 µM and the turnover number (kcat) is 26 ± 3 s⁻¹.
